Test results taken from PubChem BioAssay (NCI).
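Compound exposure: 48 hours, 5 concentrations, 96-well plates. Here, GI50 denotes the concentration required for 50% inhibition of growth. At the TGI there is no net growth.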

Columns and labels:
Assay in all cases: NCI tumour cell line growth inhibition, 48 h
HOP-92 NSCLC = system: HOP-92 NSCLC
SK-OV-3 ovarian = system: SK-OV-3 ovarian
RXF 393 renal = system: RXF 393 renal
CCRF-CEM leukemia = system: CCRF-CEM leukemia
A498 renal = system: A498 renal
UACC-62 melanoma = system: UACC-62 melanoma
MALME-3M melanoma = system: MALME-3M melanoma
SK-MEL-5 melanoma = system: SK-MEL-5 melanoma
EKVX NSCLC = system: EKVX NSCLC
A549 NSCLC = system: A549 NSCLC

SMILES | TGI (HOP-92 NSCLC) [µM] | TGI (SK-OV-3 ovarian) [µM] | TGI (RXF 393 renal) [µM] | TGI (CCRF-CEM leukemia) [µM] | TGI (A498 renal) [µM] | TGI (UACC-62 melanoma) [µM] | TGI (MALME-3M melanoma) [µM] | TGI (SK-MEL-5 melanoma) [µM] | TGI (EKVX NSCLC) [µM] | GI50 (HOP-92 NSCLC) [µM] | GI50 (SK-OV-3 ovarian) [µM] | GI50 (RXF 393 renal) [µM] | GI50 (CCRF-CEM leukemia) [µM] | GI50 (A549 NSCLC) [µM] | GI50 (A498 renal) [µM] | GI50 (UACC-62 melanoma) [µM] | GI50 (MALME-3M melanoma) [µM] | GI50 (SK-MEL-5 melanoma) [µM] | GI50 (EKVX NSCLC) [µM] | TGI (A549 NSCLC) [µM]
N=c1c2c(=S)n(-c3ccccc3)c(=S)n(-c3ccccc3)c2nc(SCCCN2CCN(c3cccc(Cl)c3)CC2)n1-c1ccccc1 | > 100 | > 100 | > 100 | > 100 | > 100 | > 100 | > 100 | > 100 | > 100 | – | – | – | – | – | – | – | – | – | – | –
Nc1nc(Cl)cc(OCC2(CO)CC(OCc3ccccc3)C2)n1 (stereo unspecified) | – | – | – | – | – | – | – | – | – | 49.9 | 61.2 | 48.6 | 41.6 | 43 | 58.3 | 77.1 | 84.5 | 23.9 | 44.6 | –
N=C(N)c1ccc(-c2ccc(-c3ccccc3)s2)cc1 | 3.34 | 7.27 | 3.39 | 4.57 | – | 3.42 | 2.83 | 3.19 | 11.4 | 1.55 | 2.42 | 1.72 | 1.97 | 2.14 | – | 1.75 | 1.45 | 1.77 | 2.65 | 4.73
CCCCCCCC/C=C\CCCCCCCC(=O)O | > 5 | > 500 | 168 | 197 | > 500 | 351 | > 500 | > 282 | 164 | – | – | – | – | – | – | – | – | – | – | 226
CC(=O)Oc1ccc2c(c1)oc1c3ccc(OC(C)=O)cc3n(C)c(=O)c21 | > 100 | > 100 | > 100 | > 100 | – | > 100 | 31.1 | 16.7 | 70.8 | – | – | – | – | – | – | – | – | – | – | > 100
O=C1C=CC2=[N+]([O-])C(c3ccccc3)(c3ccccc3)C(=Nc3ccccc3)C2=C1 | 3.48 | 31.8 | 3.04 | 2.18 | – | 4.51 | 4.2 | 27.2 | 14.1 | – | – | – | – | – | – | – | – | – | – | 29.4
Cc1cc(C)c2c(c1)CC1(Cc3c(C)ccc(C)c3C1=O)C2=O (stereo unspecified) | > 100 | – | > 100 | > 100 | > 100 | > 100 | > 100 | > 100 | > 100 | – | – | – | – | – | – | – | – | – | – | > 100
CCNc1nnc(-c2nsc3ccccc23)s1 | > 100 | – | > 100 | > 100 | – | > 100 | – | > 100 | > 100 | – | – | – | – | – | – | – | – | – | – | > 100
COC(=O)c1cccc(N[C@@H]2c3cc4c(cc3C(c3cc(OC)c(O)c(OC)c3)[C@H]3C(=O)OCC32)OCO4)c1 (stereo partly specified) | 7.14 | 23.6 | 15.9 | 5.23 | 3.46 | 8.28 | 27.8 | 3.02 | > 26.6 | – | – | – | – | – | – | – | – | – | – | 3.25
C=C1C(=O)C[C@@]23CCC[C@@]12CC(OCOC)C3 (stereo partly specified) | 7.43 | 17.8 | 2.17 | 6.81 | 18.4 | 7.62 | 8.38 | 13.3 | 16.7 | – | – | – | – | – | – | – | – | – | – | 28.4
S=P1(N2CCCCC2)Oc2ccc3ccccc3c2-c2c(ccc3ccccc23)O1 | > 100 | > 100 | > 100 | > 31.6 | > 100 | > 100 | > 59.6 | > 100 | > 100 | – | – | – | – | – | – | – | – | – | – | > 100
Cc1ccc([N+](=O)[O-])cc1S(=O)(=O)Nc1ccc(C2=NNC(c3ccccc3O)C2)cc1 (stereo unspecified) | > 100 | > 100 | 40.5 | > 100 | 79.3 | 41.6 | 96.3 | 58.6 | 56.9 | – | – | – | – | – | – | – | – | – | – | > 100
